According to US20080234266A1, “Squaric Acid Derivatives II” (priority 2005, published 2008):

Each compound was assayed against T1, CHK1 kinase (Homo sapiens, UniProt O14757) (assay: Flashplate method (CHK1), measurement of the CHK1 kinase activity). Conditions: class symbols; 'Affinity to receptors'.
T1 construct: glutathione S-transferase (GST); made in house; host or cells: Sf21 insect cells (S. frugiperda), baculovirus
T1 sequence (O14757 1-476): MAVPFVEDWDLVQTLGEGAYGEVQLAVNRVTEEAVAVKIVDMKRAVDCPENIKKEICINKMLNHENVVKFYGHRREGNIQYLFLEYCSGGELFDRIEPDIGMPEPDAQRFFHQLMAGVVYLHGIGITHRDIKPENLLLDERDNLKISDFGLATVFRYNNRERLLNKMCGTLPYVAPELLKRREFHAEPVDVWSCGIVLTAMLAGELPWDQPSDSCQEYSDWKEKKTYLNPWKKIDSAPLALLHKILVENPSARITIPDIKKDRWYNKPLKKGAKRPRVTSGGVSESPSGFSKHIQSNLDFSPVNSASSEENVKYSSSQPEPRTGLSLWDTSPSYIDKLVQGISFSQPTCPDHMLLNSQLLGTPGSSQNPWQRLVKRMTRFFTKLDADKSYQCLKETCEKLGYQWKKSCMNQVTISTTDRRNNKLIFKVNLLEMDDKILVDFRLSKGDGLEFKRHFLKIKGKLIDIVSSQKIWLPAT
Format: biochemical
Procedure: CHK1 kinase is expressed for the purposes of protein production in insect cells (Sf21; S. frugiperda) and subsequent purification by affinity chromatography as fusion protein with glutathione S-transferase in a baculovirus expression vector. The cultivation, infection and digestion of the cells as well as the purification of the fusion protein by column chromatography are carried out in accordance with manufacturer-oriented generic working instructions.
The kinase activity is measured using various available measurement systems. In the scintillation proximity method (Sorg et al., J. of. Biomolecular Screening, 2002, 7, 11-19), the flashplate method or the filter binding test, the radioactive phosphorylation of a protein or peptide as substrate is measured using radioactively labelled ATP (γ^32P-ATP, (γ^33P-ATP). In the case of the presence of an inhibitory compound, a reduced radioactive signal, or none at all, can be detected. Furthermore, homogeneous time-resolved fluorescence resonance energy transfer (HTR-FRET) and fluorescence polarisation (FP) technologies are useful as assay methods (Sills et al., J. of Biomolecular Screening, 2002, 191-214).
The test plates used are 384-well streptavidin-coated Flashplates Plus® from Perkin Elmer (Cat.No. SMP410A001PK). The assay plate is equilibrated with 75 μl of assay buffer per well 30 min before commencement of the experiment. The buffer is sucked out before commencement of the experiment, and the components of the kinase reaction described below are pipetted onto the plate.
CHK1 kinase, a biotinylated substrate peptide (for example CHKtide: […]), is incubated with radioactively labelled ATP in the presence and absence of test substances at 30° Celsius and a total volume of 50 μl. The reaction is terminated using 25 μl of a 0.2 M EDTA solution. After incubation for 30 min at room temperature, the supernatants are filtered off with suction, and the wells are washed three times with 100 μl of 0.9% NaCl solution each time. The measurement of the bound radioactivity is carried out by means of a scintillation measuring instrument (Topcount NXT, Perkin-Elmer).
The full value used is the inhibitor-free kinase reaction. This should be approximately in the range 3000-4000 cpm. The pharmacological zero value used is staurosporin in a final concentration of 0.1 μM. The inhibitory values (IC50) are determined using the program RS1_MTS ( ).
Kinase reaction conditions per well:
0.15 μg of CHKtide ([…])
50 μl total volume (1-fold assay buffer reaction conditions)
Solutions used: • assay buffer:
0.1 mM Titriplex VI (EGTA
10 mM magnesium acetate 0.1% mercaptoethanol
pH=7.5 (to be set using hydrochloric acid) Bovine serum albumin (final concentration 0.1%) is not added until just before use. • stop solution:
0.2 M TitriplexIII (EDTA)
• γ^33P-ATP (Perkin-Elmer) • CHK1 kinase preparations: specific activity>50 U/mg • CHKtide solution: biotinylated peptide substrate (Biotrend) stored as stock solution (concentration 0.15 mg/ml).

Row | SMILES | IC50 [nM]
1 | O=c1c(Nc2ccc3[nH]cnc3c2)c(N2CCc3ccc(O)cc3C2)c1=O [Compound A82, 3-(1H-benzimidazol-5-ylamino)-4-(7-hydroxy-3,4-dihydro-1H-isoquinolin-2-yl)cyclobut-3-ene-1,2-dione] | > 1000
2 | COc1cccc([C@H](C)Nc2c(Nc3ccc4[nH]cnc4c3)c(=O)c2=O)c1 [Compound A83, 3-(1H-benzimidazol-5-ylamino)-4-[(S)-1-(3-methoxyphenyl)ethylamino]cyclobut-3-ene-1,2-dione] | > 1000
3 | COc1ccc(F)c(CNc2c(Nc3ccc4[nH]cnc4c3)c(=O)c2=O)c1 [Compound A85, 3-(1H-benzimidazol-5-ylamino)-4-(2-fluoro-5-methoxybenzylamino)cyclobut-3-ene-1,2-dione] | > 1000
4 | O=c1c(NCc2cccc(O)c2Cl)c(Nc2ccc3[nH]cnc3c2)c1=O [Compound A86, 3-(1H-benzimidazol-5-ylamino)-4-(2-chloro-3-hydroxybenzylamino)cyclobut-3-ene-1,2-dione] | > 1000
5 | O=c1c(NCc2ccc3[nH]cnc3c2)c(Nc2ccc3[nH]cnc3c2)c1=O [Compound A88, 3-(1H-benzimidazol-5-ylamino)-4-[(1H-benzimidazol-5-ylmethyl)amino]cyclobut-3-ene-1,2-dione] | > 1000
6 | Cc1nc2cc(Nc3c(NCc4cccc(O)c4)c(=O)c3=O)ccc2[nH]1 [Compound A89, 3-(3-hydroxybenzylamino)-4-(2-methyl-1H-benzimidazol-5-ylamino)cyclobut-3-ene-1,2-dione] | > 1000
7 | O=c1c(NCc2ccc3[nH]c(C(F)(F)F)nc3c2)c(Nc2ccc3[nH]cnc3c2)c1=O [Compound A90, 3-(1H-benzimidazol-5-ylamino)-4-[(2-trifluoromethyl-1H-benzimidazol-5-ylmethyl)-amino]cyclobut-3-ene-1,2-dione] | > 1000
8 | COc1ccc(CNc2c(Nc3ccc4[nH]cnc4c3)c(=O)c2=O)cc1O [Compound A91, 3-(1H-benzimidazol-5-ylamino)-4-(3-hydroxy-4-methoxybenzylamino)cyclobut-3-ene-1,2-dione] | > 1000
9 | Cc1ccc(CNc2c(Nc3ccc4[nH]cnc4c3)c(=O)c2=O)cc1O [Compound A92, 3-(1H-benzimidazol-5-ylamino)-4-(3-hydroxy-4-methylbenzylamino)cyclobut-3-ene-1,2-dione] | > 1000
10 | CCOc1ccc(O)cc1CNc1c(Nc2ccc3[nH]cnc3c2)c(=O)c1=O [Compound A93, 3-(1H-benzimidazol-5-ylamino)-4-(2-ethoxy-5-hydroxybenzylamino)cyclobut-3-ene-1,2-dione] | > 1000
11 | NC(=O)c1cccc(CNc2c(Nc3ccc4[nH]cnc4c3)c(=O)c2=O)c1 [Compound A95, 3-(1H-benzimidazol-5-ylamino)-4-(3-amino-carbonylbenzylamino)cyclobut-3-ene-1,2-dione] | > 1000
12 | CN(C)Cc1c[nH]c2cc(CNc3c(Nc4ccc5[nH]cnc5c4)c(=O)c3=O)ccc12 [Compound A96, 3-(1H-benzimidazol-5-ylamino)-4-[(3-dimethylaminomethyl-1H-indol-6-ylmethyl)-amino]cyclobut-3-ene-1,2-dione] | > 1000
13 | Cc1c(O)cccc1CNc1c(Nc2ccc3[nH]cnc3c2)c(=O)c1=O [Compound A97, 3-(1H-benzimidazol-5-ylamino)-4-(3-hydroxy-2-methylbenzylamino)cyclobut-3-ene-1,2-dione] | > 1000

The remaining lines, values ahead:

Row | IC50 [nM] | SMILES
14 | > 1000 | COCCn1cnc2ccc(Nc3c(NCc4cccc(S(N)(=O)=O)c4)c(=O)c3=O)cc21 [Compound A70, 3-[3-(2-methoxyethyl)-3H-benzimidazol-5-ylamino]-4-(3-aminosulfonylbenzylamino)-cyclobut-3-ene-1,2-dione]
15 | > 1000 | CCN(CC)CCn1cnc2ccc(Nc3c(NCc4cccc(S(N)(=O)=O)c4)c(=O)c3=O)cc21 [Compound A71, 3-[3-(2-diethylaminoethyl)-3H-benzimidazol-5-ylamino]-4-(3-aminosulfonylbenzylamino)-cyclobut-3-ene-1,2-dione]
16 | > 1000 | COCCn1cnc2cc(Nc3c(N[C@H](C)c4cccc(OC)c4)c(=O)c3=O)ccc21 [Compound A72, 3-[1-(2-methoxyethyl)-1H-benzimidazol-5-ylamino]-4-[(R)-1-(3-methoxyphenyl)ethyl-amino]cyclobut-3-ene-1,2-dione]
17 | > 1000 | CCN(CC)CCn1cnc2cc(Nc3c(N[C@H](C)c4cccc(O)c4)c(=O)c3=O)ccc21 [Compound A73, 3-[1-(2-diethylaminoethyl)-1H-benzimidazol-5-ylamino]-4-[(R)-1-(3-hydroxyphenyl)ethyl-amino]cyclobut-3-ene-1,2-dione]
18 | > 1000 | COCCn1cnc2cc(Nc3c(N[C@H](C)c4cccc(O)c4)c(=O)c3=O)ccc21 [Compound A74, 3-[(R)-1-(3-hydroxyphenyl)ethylamino]-4-[1-(2-methoxyethyl)-1H-benzimidazol-5-yl-amino]cyclobut-3-ene-1,2-dione]
19 | > 1000 | CC(Nc1c(Nc2ccc3[nH]cnc3c2)c(=O)c1=O)c1ccc2[nH]ccc2c1 (stereo not shown) [Compound A75, 3-(1H-benzimidazol-5-ylamino)-4-[1-(1H-indol-5-yl)ethylamino]cyclobut-3-ene-1,2-dione]
20 | > 1000 | COc1cc(CNc2c(Nc3ccc4[nH]cnc4c3)c(=O)c2=O)ccc1F [Compound A76, 3-(1H-benzimidazol-5-ylamino)-4-(4-fluoro-3-methoxybenzylamino)cyclobut-3-ene-1,2-dione]
21 | > 1000 | CS(=O)(=O)Nc1cccc(CNc2c(Nc3ccc4[nH]cnc4c3)c(=O)c2=O)c1 [Compound A77, 3-(1H-benzimidazol-5-ylamino)-4-(3-methyl-sulfonylaminobenzylamino)cyclobut-3-ene-1,2-dione]
22 | > 1000 | O=c1c(NCc2cc(F)c(F)c(O)c2F)c(Nc2ccc3[nH]cnc3c2)c1=O [Compound A78, 3-(1H-benzimidazol-5-ylamino)-4-(2,4,5-trifluoro-3-hydroxybenzylamino)cyclobut-3-ene-1,2-dione]
23 | > 1000 | O=c1c(NCc2ccc3[nH]ccc3c2)c(Nc2ccc3[nH]cnc3c2)c1=O [Compound A79, 3-(1H-benzimidazol-5-ylamino)-4-[(1H-indol-5-ylmethyl)amino]cyclobut-3-ene-1,2-dione]
24 | > 1000 | O=c1[nH]c2ccc(CNc3c(Nc4ccc5[nH]cnc5c4)c(=O)c3=O)cc2[nH]1 [Compound A80, 3-(1H-benzimidazol-5-ylamino)-4-[(2-oxo-2,3-dihydro-1H-benzimidazol-5-ylmethyl)amino]-cyclobut-3-ene-1,2-dione]
25 | > 1000 | CCOC(=O)c1cc2cc(Nc3c(NCc4cccc(O)c4)c(=O)c3=O)ccc2[nH]1 [Compound A81, 3-(2-ethoxycarbonyl-1H-indol-5-ylamino)-4-(3-hydroxybenzylamino)cyclobut-3-ene-1,2-dione]
26 | < 1000 | O=c1c(NCc2ccc(F)c(O)c2)c(Nc2ccc3[nH]cnc3c2)c1=O [Compound A84, 3-(1H-benzimidazol-5-ylamino)-4-(4-fluoro-3-hydroxybenzylamino)cyclobut-3-ene-1,2-dione]
27 | < 1000 | O=c1c(NCc2ccc(O)c(O)c2)c(Nc2ccc3[nH]cnc3c2)c1=O [Compound A87, 3-(1H-benzimidazol-5-ylamino)-4-(3,4-di-hydroxybenzylamino)cyclobut-3-ene-1,2-dione]
28 | < 1000 | O=c1c(NCc2cc(O)cc(O)c2)c(Nc2ccc3[nH]cnc3c2)c1=O [Compound A94, 3-(1H-benzimidazol-5-ylamino)-4-(3,5-di-hydroxybenzylamino)cyclobut-3-ene-1,2-dione]
